# Experiments:
# [1] = system: F-CEB25-WT-T (DNA, G4) AGGGTGGGTGTAAGTGTGGGTGGGT; assay: FRET-melting; conditions: 1 mM KCl, 99 mM LiCl; 10 mM lithium cacodylate pH 7.3; 1 µM compound, 0.2 µM DNA
# [2] = system: F-21-T (DNA, G4) GGGTTAGGGTTAGGGTTAGGG; assay: FRET-melting; conditions: 10 mM KCl, 90 mM LiCl; 10 mM lithium cacodylate pH 7.3; 1 µM compound, 0.2 µM DNA
# [3] = system: F-21CTA-T (DNA, G4) AGGGCTAGGGCTAGGGCTAGGG; assay: FRET-melting; conditions: 1 mM KCl, 99 mM LiCl; 10 mM lithium cacodylate pH 7.3; 1 µM compound, 0.2 µM DNA
# [4] = system: F-myc-T (DNA, G4) TGAGGGTGGGTAGGGTGGGTAA; assay: FRET-melting; conditions: 1 mM KCl, 99 mM LiCl; 10 mM lithium cacodylate pH 7.3; 1 µM compound, 0.2 µM DNA
# [5] = system: CEB25-WT (DNA, G4) AAGGGTGGGTGTAAGTGTGGGTGGGT; assay: G4-FID, TO-PRO-3 displacement; conditions: 100 mM KCl; 10 mM lithium cacodylate pH 7.3, 1% DMSO; TO-PRO-3 displaced; 1 µM compound, 0.25 µM DNA
# [6] = system: 22AG (DNA, G4) AGGGTTAGGGTTAGGGTTAGGG; assay: G4-FID, TO-PRO-3 displacement; conditions: 100 mM KCl; 10 mM lithium cacodylate pH 7.3, 1% DMSO; TO-PRO-3 displaced; 1 µM compound, 0.25 µM DNA
Compound,ΔTm [1] [°C],ΔTm [2] [°C],ΔTm [3] [°C],ΔTm [4] [°C],% TO-PRO-3 displacement [5],% TO-PRO-3 displacement [6]
Cc1ccc(-c2cc(-c3ccccn3)nc(-c3ccccn3)c2)cc1.[Cl-].[Cl][Pt+] [Pt-ttpy],> 10,> 10,> 10,> 10,,
"CN(C)c1ccc(/C=C/c2cc(-c3ccccn3)nc(-c3ccccn3)n2)cc1.[Cl-].[Cl][Pt+] [Pt-vpym, Chloro-(E)-4-(2-(2,6-di(pyridin-2-yl)pyrimidin-4-yl)vinyl)-N,N-dimethylaniline-platinum(II) Chloride]",,,,,~ 30%,~ 30%

# From paper PMC6385020 (Molecules, 2019)
